Test results published in paper PMC11603075 (Communications Biology, 2024).

Legend:
KDM5B = assay: MALDI–TOF MS demethylation/+16 Da assay, KDM5B; format: biochemical, human; conditions: 90 min
Excerpt: Fig. 2 Histone H2a fragments are KDM5 and KDM4 substrates. […] See Supplementary Table 6 and Supplementary Fig. 2 for assay conditions and quantification, respectively. […] 0-minute MS spectrum in black, 60/90-minute spectrum in red.
MS-based screening assays with peptides and calf thymus histones were as reported; see Supplementary Table 6 for conditions. Time course assays were based on reported procedures. In brief, equal volumes of the enzyme and substrate solutions were combined to initiate the reaction; 10 µL of 2% (v/v) formic acid (HCOOH) in ddH2O or 100% methanol was added to 10 µL of the reaction mixture to quench reactions at different time points. Unless otherwise stated, time course assays were carried out in triplicate. In some cases, LC–MS was used instead of MALDI-TOF MS to avoid a MALDI matrix induced artefact with the hydroxylated product (Supplementary Fig. 16). […]
Supplementary Figure 2 Histone H2a peptide fragments are substrates of KDM4s and KDM5s.
2 for representative corresponding MALDI–TOF MS traces. Bar graphs comparing % product format ion (+16 Da and demethylation) of H2a(1–20)R3me2a by (a) K DM5 A–D (after 90 minutes) and (b) KDM4A–E ( a ft er 60 minutes), analysed by MALDI– TOF MS. n = (a) 2, (b) 3 (independent assays). See Supplementary Table 6 for assay condit ions. See Figure S13 A 1 for a positive control.
(also on this page, place not known: formation KDM5A–D (after MALDI–TOF conditions. Figure S13A1 KDM4A KDM4B KDM4C KDM4D KDM4E 80% product formation KDM5A KDM5B KDM5C KDM5D % product formation) […]
(§1) [ E nz ym e] [Peptide] [2OG] [Ascorbate] [(NH4)2F e(S O4)2] [TCEP] Buffer pH7.5 Enzyme Cognate substrate (mM) (mM) (mM) (mM) (mM) (mM) [HE PE S]
(§2) Supplementary Table 6 Summary of MS assay conditions for substrate screening. These conditions enabled efficient turnover of established substrates. Reactions were carried out at 37 °C unless otherwise st ated. […]

KDM4E = target: T1, KDM4E (Homo sapiens, UniProt B2RXH2); assay: MALDI–TOF MS time course / specific activity, KDM4E; format: biochemical
T1 construct: KDM4E1–337; made in house; host or cells: E. coli
T1 sequence (B2RXH2 1-337): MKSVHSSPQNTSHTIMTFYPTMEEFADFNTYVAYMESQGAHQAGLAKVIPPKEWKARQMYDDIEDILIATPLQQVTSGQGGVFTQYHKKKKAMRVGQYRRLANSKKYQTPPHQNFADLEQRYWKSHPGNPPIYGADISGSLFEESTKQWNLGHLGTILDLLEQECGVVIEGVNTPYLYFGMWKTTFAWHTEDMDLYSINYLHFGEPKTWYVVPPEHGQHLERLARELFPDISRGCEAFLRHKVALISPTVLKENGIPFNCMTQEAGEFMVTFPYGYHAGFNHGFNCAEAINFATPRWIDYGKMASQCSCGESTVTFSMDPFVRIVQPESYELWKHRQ
Description: MS-based screening assays with peptides and calf thymus histones were as reported; see Supplementary Table 6 for conditions. Time course assays were based on reported procedures. In brief, equal volumes of the enzyme and substrate solutions were combined to initiate the reaction; 10 µL of 2% (v/v) formic acid (HCOOH) in ddH2O or 100% methanol was added to 10 µL of the reaction mixture to quench reactions at different time points. Unless otherwise stated, time course assays were carried out in triplicate. In some cases, LC–MS was used instead of MALDI-TOF MS to avoid a MALDI matrix induced artefact with the hydroxylated product (Supplementary Fig. 16).
Data collected from time course assay(s) were used to plot the % conversion vs time (min) using GraphPad Prism5 version 5.04; the resultant slopes were used to fit a line with linear regression to the first-order region of the reaction. The resultant gradient was then converted from % product formation min^−1 to amount of peptide converted (demethylation and / or hydroxylation) in µM.
Supplementary Figure 4 Activity of KDM5C (black circles) with H2a(1–20)R3me2a is greater than that of KDM4E (white circles). (a) A MALDI–TOF MS time course graph of product formation (%) of KDM4E ( −14 Da/+16 Da) and KDM5C (−14 Da) reaction with H2a(1–20)R3me2a versus time (minutes). ~60% substrate depletion was reached after 105 minutes with KDM4E; ~95% of H2a(1–20)R3me2a was demethylated after 1 05 minut e s wit h K DM5 C. (b ) Comparison of specific activities of KDM4E with H2a(1–20)R3me2a (0.15 […]
bars; +/- SD; n = 3 (independent assays). See Supplementary Table 6 for assay condit ions.
(also on this page, place not known: 105 minutes KDM5C. (b) H2a(1 –20)R3me2a with conditions. specific activity (pmol·min-1·μM-1))
(1 picture or pasted object on this page, not shown here)
as §1, §2

product formation (−14 Da/+16 Da) (KDM4E; 0 min, replicate 1): 0%
product formation (−14 Da/+16 Da) (KDM4E; 0 min, replicate 2): 0%
product formation (−14 Da/+16 Da) (KDM4E; 0 min, replicate 3): 0%
product formation (−14 Da/+16 Da) (KDM4E; 5 min, replicate 1): 3.341%
product formation (−14 Da/+16 Da) (KDM4E; 5 min, replicate 2): 5.787%
product formation (−14 Da/+16 Da) (KDM4E; 5 min, replicate 3): -0.8025%
product formation (−14 Da/+16 Da) (KDM4E; 15 min, replicate 1): -0.9416%
product formation (−14 Da/+16 Da) (KDM4E; 15 min, replicate 2): 5.091%
product formation (−14 Da/+16 Da) (KDM4E; 15 min, replicate 3): -0.7355%
product formation (−14 Da/+16 Da) (KDM4E; 30 min, replicate 1): 22.6189%
product formation (−14 Da/+16 Da) (KDM4E; 30 min, replicate 2): 32.3989%
product formation (−14 Da/+16 Da) (KDM4E; 30 min, replicate 3): 20.757%
product formation (−14 Da/+16 Da) (KDM4E; 45 min, replicate 1): 29.5376%
product formation (−14 Da/+16 Da) (KDM4E; 45 min, replicate 2): 33.3686%
product formation (−14 Da/+16 Da) (KDM4E; 45 min, replicate 3): 28.8806%
product formation (−14 Da/+16 Da) (KDM4E; 60 min, replicate 1): 41.1416%
product formation (−14 Da/+16 Da) (KDM4E; 60 min, replicate 2): 35.7562%
product formation (−14 Da/+16 Da) (KDM4E; 60 min, replicate 3): 37.6375%
product formation (−14 Da/+16 Da) (KDM4E; 75 min, replicate 1): 48.3844%
product formation (−14 Da/+16 Da) (KDM4E; 75 min, replicate 2): 47.469%
product formation (−14 Da/+16 Da) (KDM4E; 75 min, replicate 3): 46.9153%
product formation (−14 Da/+16 Da) (KDM4E; 90 min, replicate 1): 60.0026%
product formation (−14 Da/+16 Da) (KDM4E; 90 min, replicate 2): 49.7939%
product formation (−14 Da/+16 Da) (KDM4E; 90 min, replicate 3): 54.7629%
product formation (−14 Da/+16 Da) (KDM4E; 105 min, replicate 1): 62.5982%
product formation (−14 Da/+16 Da) (KDM4E; 105 min, replicate 2): 62.265%
product formation (−14 Da/+16 Da) (KDM4E; 105 min, replicate 3): 60.6438%
substrate depletion (KDM4E; KDM4E, 105 minutes): ~ 60%
specific activity (KDM4E; KDM4E, mean of n = 3, SD 0.010): 0.15 pmol min^−1 µM^−1
specific activity (KDM4E; KDM4E, repeat 1): 0.1634 pmol·min-1·μM-1
specific activity (KDM4E; KDM4E, repeat 2): 0.141 pmol·min-1·μM-1
specific activity (KDM4E; KDM4E, repeat 3): 0.1586 pmol·min-1·μM-1
Substance: Ac - SGR [ me 2a ] GKQ GGKAR AKAKT R SSR [H2a(1–20)R3me2a, H2a(1–20)R3me2a without a biotin tag]
+16 Da (% product formation) (KDM5B; replicate 1): 0%
demethylation (% product formation) (KDM5B; replicate 1): 23.54%
+16 Da (% product formation) (KDM5B; replicate 2): 0%
demethylation (% product formation) (KDM5B; replicate 2): 18.654%
